System: 266295-075-R-J1-PDC spheroid viability
Experiment: Anticancer human tumor 266295-075-R-J1-PDC patient-derived head and neck squamous carcinoma cell line growth inhibition [POLQ]
Details: spheroids with HUVEC and MSC; for IC50: curve of first compound; for viability, T/C: stronger effect = lower value
How it was run: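 Patient-derived tumour cells were co-cultured with HUVEC and mesenchymal stem cells as multicellular spheroids at 37 °C. They were treated with POLQ inhibitors (novobiocin, ART-558, RP6685) alone or combined with other agents. Top concentrations were at or near clinical Cmax (otherwise 10 microM; SN-38 at 1 microM), decreasing in half-log steps.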

[1] = second compound 0.0316 µM, first compound 0.00316 µM
[2] = second compound 0.0316 µM, first compound 0.01 µM
[3] = second compound 0.0316 µM, first compound 0.0316 µM
[4] = second compound 0.0316 µM, first compound 0.1 µM
[5] = second compound 0.1 µM, first compound 0.00316 µM
[6] = second compound 0.1 µM, first compound 0.01 µM
[7] = second compound 0.1 µM, first compound 0.0316 µM
[8] = second compound 0.1 µM, first compound 0.1 µM
[9] = second compound 0.316 µM, first compound 0.00316 µM
[10] = second compound 0.316 µM, first compound 0.01 µM
[11] = second compound 0.316 µM, first compound 0.0316 µM
[12] = second compound 0.316 µM, first compound 0.1 µM
[13] = second compound 1 µM, first compound 0.00316 µM
[14] = second compound 1 µM, first compound 0.01 µM
[15] = second compound 1 µM, first compound 0.0316 µM
[16] = second compound 1 µM, first compound 0.1 µM
[17] = second compound 3.16 µM, first compound 0.00316 µM
[18] = second compound 3.16 µM, first compound 0.01 µM
[19] = second compound 3.16 µM, first compound 0.0316 µM
[20] = second compound 3.16 µM, first compound 0.1 µM
[21] = second compound 10 µM, first compound 0.00316 µM
[22] = second compound 10 µM, first compound 0.01 µM
[23] = second compound 10 µM, first compound 0.0316 µM
[24] = second compound 10 µM, first compound 0.1 µM
[25] = second compound 0.0316 µM, first compound 0.316 µM
[26] = second compound 0.0316 µM, first compound 1 µM
[27] = second compound 0.1 µM, first compound 0.316 µM
[28] = second compound 0.1 µM, first compound 1 µM
[29] = second compound 0.316 µM, first compound 0.316 µM
[30] = second compound 0.316 µM, first compound 1 µM
[31] = second compound 1 µM, first compound 0.316 µM
[32] = second compound 1 µM, first compound 1 µM
[33] = second compound 3.16 µM, first compound 0.316 µM
[34] = second compound 3.16 µM, first compound 1 µM
[35] = second compound 10 µM, first compound 0.316 µM
[36] = second compound 10 µM, first compound 1 µM
[37] = second compound 0.0316 µM, first compound 3.16 µM
[38] = second compound 0.0316 µM, first compound 10 µM
[39] = second compound 0.1 µM, first compound 3.16 µM
[40] = second compound 0.1 µM, first compound 10 µM
[41] = second compound 0.316 µM, first compound 3.16 µM
[42] = second compound 0.316 µM, first compound 10 µM
[43] = second compound 1 µM, first compound 3.16 µM
[44] = second compound 1 µM, first compound 10 µM
[45] = second compound 3.16 µM, first compound 3.16 µM
[46] = second compound 3.16 µM, first compound 10 µM
[47] = second compound 10 µM, first compound 3.16 µM
[48] = second compound 10 µM, first compound 10 µM
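Note: spheroids exposed to compounds for seven days before readout.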

SMILES: CC[C@@]1(O)C(=O)OCc2c1cc1n(c2=O)Cc2cc3c(CN(C)C)c(O)ccc3nc2-1 + Nc1ccc(C#CCN(C(=O)Cc2ncc(C(F)(F)F)cc2C(F)(F)F)c2ccc(F)cc2)nn1
- IC50 (second compound 0.0316 µM): > 0.1 µM
- IC50 (second compound 0.1 µM): > 0.1 µM
- IC50 (second compound 0.316 µM): > 0.1 µM
- IC50 (second compound 1 µM): > 0.1 µM
- IC50 (second compound 3.16 µM): > 0.1 µM
- IC50 (second compound 10 µM): > 0.1 µM
- viability, T/C (second compound 0.0316 µM, first compound 0.000316 µM): 98.9%
- viability, T/C (second compound 0.0316 µM, first compound 0.001 µM): 105%
- viability, T/C [1]: 105%
- viability, T/C [2]: 95.1%
- viability, T/C [3]: 84%
- viability, T/C [4]: 91.8%
- viability, T/C (second compound 0.1 µM, first compound 0.000316 µM): 105%
- viability, T/C (second compound 0.1 µM, first compound 0.001 µM): 110%
- viability, T/C [5]: 97.5%
- viability, T/C [6]: 92.1%
- viability, T/C [7]: 116%
- viability, T/C [8]: 114%
- viability, T/C (second compound 0.316 µM, first compound 0.000316 µM): 101%
- viability, T/C (second compound 0.316 µM, first compound 0.001 µM): 93.8%
- viability, T/C [9]: 103%
- viability, T/C [10]: 107%
- viability, T/C [11]: 116%
- viability, T/C [12]: 69.2%
- viability, T/C (second compound 1 µM, first compound 0.000316 µM): 91.2%
- viability, T/C (second compound 1 µM, first compound 0.001 µM): 97.2%
- viability, T/C [13]: 75.7%
- viability, T/C [14]: 102%
- viability, T/C [15]: 98.7%
- viability, T/C [16]: 74.3%
- viability, T/C (second compound 3.16 µM, first compound 0.000316 µM): 97.3%
- viability, T/C (second compound 3.16 µM, first compound 0.001 µM): 101%
- viability, T/C [17]: 82.5%
- viability, T/C [18]: 83.2%
- viability, T/C [19]: 99.5%
- viability, T/C [20]: 88.6%
- viability, T/C (second compound 10 µM, first compound 0.000316 µM): 97.2%
- viability, T/C (second compound 10 µM, first compound 0.001 µM): 92.2%
- viability, T/C [21]: 119%
- viability, T/C [22]: 85.7%
- viability, T/C [23]: 94.4%
- viability, T/C [24]: 87.8%

SMILES: CCc1c2c(nc3ccc(O)cc13)-c1cc3c(c(=O)n1C2)COC(=O)[C@]3(O)CC + Nc1ccc(C#CCN(C(=O)Cc2ncc(C(F)(F)F)cc2C(F)(F)F)c2ccc(F)cc2)nn1
- IC50 (second compound 0.0316 µM): > 1 µM
- IC50 (second compound 0.1 µM): > 1 µM
- IC50 (second compound 0.316 µM): > 1 µM
- IC50 (second compound 1 µM): > 1 µM
- IC50 (second compound 3.16 µM): > 1 µM
- IC50 (second compound 10 µM): > 1 µM
- viability, T/C [1]: 86.6%
- viability, T/C [2]: 96%
- viability, T/C [3]: 84.6%
- viability, T/C [4]: 97.7%
- viability, T/C [25]: 106%
- viability, T/C [26]: 81%
- viability, T/C [5]: 103%
- viability, T/C [6]: 80.7%
- viability, T/C [7]: 76.9%
- viability, T/C [8]: 102%
- viability, T/C [27]: 96.2%
- viability, T/C [28]: 75.4%
- viability, T/C [9]: 98.6%
- viability, T/C [10]: 83.1%
- viability, T/C [11]: 80.2%
- viability, T/C [12]: 101%
- viability, T/C [29]: 117%
- viability, T/C [30]: 73.5%
- viability, T/C [13]: 106%
- viability, T/C [14]: 82.7%
- viability, T/C [15]: 81.9%
- viability, T/C [16]: 85.8%
- viability, T/C [31]: 101%
- viability, T/C [32]: 63.4%
- viability, T/C [17]: 108%
- viability, T/C [18]: 96.8%
- viability, T/C [19]: 96.1%
- viability, T/C [20]: 109%
- viability, T/C [33]: 99.5%
- viability, T/C [34]: 65%
- viability, T/C [21]: 100%
- viability, T/C [22]: 97.1%
- viability, T/C [23]: 83.2%
- viability, T/C [24]: 81.5%
- viability, T/C [35]: 117%
- viability, T/C [36]: 70.4%

SMILES: Nc1ccn(C2OC(CO)C(O)C2(F)F)c(=O)n1 (stereo not drawn) + Nc1ccc(C#CCN(C(=O)Cc2ncc(C(F)(F)F)cc2C(F)(F)F)c2ccc(F)cc2)nn1
- IC50 (second compound 0.0316 µM): > 10 µM
- IC50 (second compound 0.1 µM): > 10 µM
- IC50 (second compound 0.316 µM): > 10 µM
- IC50 (second compound 1 µM): > 10 µM
- IC50 (second compound 3.16 µM): > 10 µM
- IC50 (second compound 10 µM): > 10 µM
- viability, T/C [3]: 100%
- viability, T/C [4]: 106%
- viability, T/C [25]: 81.6%
- viability, T/C [26]: 77%
- viability, T/C [37]: 93.7%
- viability, T/C [38]: 85.3%
- viability, T/C [7]: 112%
- viability, T/C [8]: 98.8%
- viability, T/C [27]: 72.6%
- viability, T/C [28]: 96.5%
- viability, T/C [39]: 92.1%
- viability, T/C [40]: 80.4%
- viability, T/C [11]: 105%
- viability, T/C [12]: 88%
- viability, T/C [29]: 78.5%
- viability, T/C [30]: 94.8%
- viability, T/C [41]: 95.7%
- viability, T/C [42]: 82%
- viability, T/C [15]: 105%
- viability, T/C [16]: 82.9%
- viability, T/C [31]: 92%
- viability, T/C [32]: 101%
- viability, T/C [43]: 94.3%
- viability, T/C [44]: 82.5%
- viability, T/C [19]: 124%
- viability, T/C [20]: 94.2%
- viability, T/C [33]: 90.5%
- viability, T/C [34]: 95.1%
- viability, T/C [45]: 83.7%
- viability, T/C [46]: 75.7%
- viability, T/C [23]: 93.2%
- viability, T/C [24]: 101%
- viability, T/C [35]: 82.8%
- viability, T/C [36]: 89.7%
- viability, T/C [47]: 75.5%
- viability, T/C [48]: 72.2%

SMILES: O=c1[nH]cc(F)c(=O)[nH]1 + Nc1ccc(C#CCN(C(=O)Cc2ncc(C(F)(F)F)cc2C(F)(F)F)c2ccc(F)cc2)nn1
- IC50 (second compound 0.0316 µM): > 10 µM
- IC50 (second compound 0.1 µM): > 10 µM
- IC50 (second compound 0.316 µM): > 10 µM
- IC50 (second compound 1 µM): > 10 µM
- IC50 (second compound 3.16 µM): > 10 µM
- IC50 (second compound 10 µM): > 10 µM
- viability, T/C [3]: 107%
- viability, T/C [4]: 101%
- viability, T/C [25]: 104%
- viability, T/C [26]: 109%
- viability, T/C [37]: 102%
- viability, T/C [38]: 99.5%
- viability, T/C [7]: 85.5%
- viability, T/C [8]: 116%
- viability, T/C [27]: 84.7%
- viability, T/C [28]: 98%
- viability, T/C [39]: 109%
- viability, T/C [40]: 80.2%
- viability, T/C [11]: 102%
- viability, T/C [12]: 96.5%
- viability, T/C [29]: 83%
- viability, T/C [30]: 89.6%
- viability, T/C [41]: 108%
- viability, T/C [42]: 76%
- viability, T/C [15]: 105%
- viability, T/C [16]: 85.7%
- viability, T/C [31]: 95.6%
- viability, T/C [32]: 120%
- viability, T/C [43]: 86%
- viability, T/C [44]: 79.8%
- viability, T/C [19]: 99.9%
- viability, T/C [20]: 131%
- viability, T/C [33]: 101%
- viability, T/C [34]: 89.3%
- viability, T/C [45]: 99.1%
- viability, T/C [46]: 86.9%
- viability, T/C [23]: 113%
- viability, T/C [24]: 103%
- viability, T/C [35]: 95.8%
- viability, T/C [36]: 96.3%
- viability, T/C [47]: 88%
- viability, T/C [48]: 87.1%
